Read-outs that look alike come from different tables or passages of the source.
Columns and labels:
Assay type in all cases: cell-based
[1] = target: T1, human D2R long isoform (Homo sapiens, UniProt P14416); experiment: HitHunter cAMP assay, inhibition of forskolin-stimulated cAMP, agonist mode
T1 construct: gene DRD2; full-length long isoform stably expressed in CHO-K1 cells from DiscoverX, HitHunter cAMP assay
Source text: HitHunter cAMP assay, inhibition of forskolin-stimulated cAMP, agonist mode on human D2R long isoform

[2] = target: T2, D2R long isoform (PathHunter) (Homo sapiens, UniProt P14416); experiment: PathHunter beta-arrestin recruitment, agonist mode
T2 construct: gene DRD2; long isoform in CHO-K1 PathHunter cells (DiscoverX), beta-galactosidase enzyme-fragment complementation with beta-arrestin; reporter tags not detailed
Source text: PathHunter beta-arrestin recruitment, agonist mode on D2R long isoform (PathHunter)

[3] = target: T1, human D2R long isoform; experiment: antagonism of D2R cAMP and beta-arrestin signaling (data not shown); details: CHO-K1
[4] = read-out: cAMP inhibition assay / EC50 (μM ± S.E.M.)
[5] = read-out: cAMP inhibition assay / EC50 (μM ± SEM)

T2 sequence (P14416 whole entry, the tested form may be a part, canonical isoform): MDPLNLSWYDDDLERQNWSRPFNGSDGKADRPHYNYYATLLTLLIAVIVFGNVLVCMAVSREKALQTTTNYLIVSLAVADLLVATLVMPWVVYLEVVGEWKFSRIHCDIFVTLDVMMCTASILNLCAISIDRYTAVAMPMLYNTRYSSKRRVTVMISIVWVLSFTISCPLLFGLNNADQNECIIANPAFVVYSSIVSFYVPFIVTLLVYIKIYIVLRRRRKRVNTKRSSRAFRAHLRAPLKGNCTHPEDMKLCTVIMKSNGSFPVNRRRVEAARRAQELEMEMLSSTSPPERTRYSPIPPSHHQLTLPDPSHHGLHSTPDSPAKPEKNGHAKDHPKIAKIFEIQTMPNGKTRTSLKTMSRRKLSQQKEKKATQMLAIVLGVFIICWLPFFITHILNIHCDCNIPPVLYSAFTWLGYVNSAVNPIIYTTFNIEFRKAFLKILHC
T1 sequence (P14416 whole entry, canonical isoform): as the sequence (P14416 whole entry, the tested form may be a part, canonical isoform) above

## c1cnc(N2CCN(Cc3ccc4ccccc4c3)CC2)nc1 [compound 45]
[1]; [4]
  EC50: 0.8 ± 0.1 µM
[2]
  EC50: 2600 ± 1100 nM

## c1cnc(N2CCN(Cc3cc4ccccc4[nH]3)CC2)nc1 [compound 44]
[1]; [4]
  EC50: 0.6 ± 0.5 µM
[2]
  EC50: 1000 ± 200 nM

## Oc1c(CN2CCN(c3ccccn3)CC2)cc(Cl)c2cccnc12 [compound 1, MLS1547]
[1]; [5]
  EC50: 2.2 ± 0.6 µM

## Oc1c(CN2CCN(c3ccccc3)CC2)cc(Cl)c2cccnc12 [compound 23]
[1]; [4]
  EC50: 2.8 ± 1.2 µM

## Oc1c(CN2CCN(c3ccccn3)CC2)cc(Br)c2cccnc12 [compound 3]
[1]; [5]
  EC50: 7.9 ± 2.1 µM

## c1ccc2cc(CN3CCN(c4cnccn4)CC3)ccc2c1 [compound 37]
[2]
  EC50: 24800 ± 15500 nM

## c1cnc(N2CCN(Cc3cccc4ccccc34)CC2)nc1 [compound 46]
[1]; [4]
  EC50: 8.5 ± 4 µM
[2]
  EC50: 14500 ± 1500 nM

## c1cc2ccc(CN3CCN(C4CCCCC4)CC3)cc2[nH]1 [compound 50]
[3]
  antagonism of D2R cAMP and beta-arrestin signaling (data not shown): compounds with cyclohexane substituents retained binding affinity for the D2R

## c1ccc(N2CCN(Cc3cccc4ccccc34)CC2)nc1 [compound 12]
[1]; [5]
  EC50: 0.7 ± 0.7 µM

## c1ccc2c(CN3CCN(c4cnccn4)CC3)cccc2c1 [compound 38]
[1]; [4]
  EC50: 27.3 ± 18.2 µM

## c1cncc(N2CCN(Cc3ccc4cc[nH]c4c3)CC2)c1 [compound 25]
[2]
  EC50: > 39000 nM

## c1cnc(N2CCN(Cc3ccc4cc[nH]c4c3)CC2)nc1 [compound 43]
[1]; [4]
  EC50: 0.04 ± 0.01 µM
[2]
  EC50: 100 ± 10 nM

## Clc1c(CN2CCN(c3ccccn3)CC2)ccc2cccnc12 [compound 7]
[1]; [5]
  EC50: 6.6 ± 5.5 µM
[2]
  EC50: 7300 ± 1800 nM

## COc1c(CN2CCN(c3ccccn3)CC2)cc(Cl)c2cccnc12 [compound 4]
[1]; [5]
  EC50: 13.4 ± 11.7 µM

## Oc1c(CN2CCN(c3ncccn3)CC2)cc(Cl)c2cccnc12 [compound 19]
[1]; [4]
  EC50: 0.7 ± 0.2 µM
[2]
  EC50: 500 ± 300 nM

## c1cncc(N2CCN(Cc3cccc4ccccc34)CC2)c1 [compound 28]
[1]; [4]
  EC50: 13.3 ± 8.6 µM
[2]
  EC50: 7700 ± 300 nM

## Oc1c(CN2CCN(c3ccccn3)CC2)ccc2cccnc12 [compound 2]
[1]; [5]
  EC50: 0.3 ± 0.09 µM
[2]
  EC50: 900 ± 300 nM

## Oc1c(CN2CCN(C3CCCCC3)CC2)cc(Cl)c2cccnc12 [compound 24]
[3]
  antagonism of D2R cAMP and beta-arrestin signaling (data not shown): compounds with cyclohexane substituents retained binding affinity for the D2R

## Oc1c(CN2CCN(c3cnccn3)CC2)cc(Cl)c2cccnc12 [compound 18]
[1]; [4]
  EC50: 3.5 ± 3.4 µM
